According to publication PMC10005301, “Prediction of the n-Octanol/Water Partition Coefficients of Basic Compounds Using Multi-Parameter QSRR Models Based on IS-RPLC Retention Behavior in a Wide pH Range” (Molecules, 2023):
Like-named read-outs stand apart in the source and are kept apart here. One block for each molecule: values may come before it.

How the values were obtained:
[1] = ref database module of ACD/Labs software, cited from earlier work
[2] = ref database module of ACD/Labs software, cited from earlier work; for pKa: Table 4, verification compounds
[3] = Source text: (§1) The retention behavior of the 42 basic compounds (Table 1) were investigated at different ratios of methanol (φ = 0.7–0.1, the interval was 0.1 or 0.05 based on the retention of the investigated solutes). The logk values were plotted versus φ for each solute at pH 7.0, pH 8.0, pH 9.0, and pH 10.0. […] The logD values of the model compounds and verification compounds calculated using Equation (S3) based on the logP and pH values are also listed in Table 1.
(§2) At each pH, the retention time (tR) of every analyte was determined for at least four different volume fractions (φ) of methanol. All the tR values of the solutes were obtained by averaging the results of at least three independent injections. The tR value was corrected using dual-point retention time correction (DP-RTC). For a detailed description of the process, refer to our previous work. For the different hydrophobicities of the studied compounds, benzene, toluene, and benzyl alcohol were used as anchor compounds in the DP-RTC method. The dead time t0 was determined using uracil. For each solute, the logarithm of k was plotted against φ, and logkw was obtained using the Equation (S1). The logD values of the model compounds were calculated using Equation (S3), and the logD–logkw models were established with Equation (S4). The statistical analysis for the regression model was accomplished using Origin 9.4. […]
(§3) Where, k is the capacity factor, φ is the volume fraction of organic modifier in the mobile phase, and S is the constant obtained by linear regression in the equations. […]
and logkw, which is usually called Collander equation [25 ]. lo g lo g wPm k n= + (S2)
Where, m and n are constants obtained by linear regression.
The Eqs. (S1) and (S2) are the basis for the determination of logP by revered- phase liquid chromatography (RPLC) method. For dissociative solutes, it has been confirmed by many studies that the logD calibrated from logP has a better linear correlation with logkw than logP.
For basic compounds, the logD value can be calibrated from Eq. (S3), and the Collander equation can be rewritten into Eq. (S4). log log( )D − −+ −+= + ++P […]
lo g ' lo g 'Dm k n= +w (S4)
Where, pKa1, pKa2 , … p Kan are the dissociation constants of basic compounds of corresponding acids in the mobile phase, pH is the pH value of mobile phase, m′ and n′ are fitting parameters. Han et al. pointed out that although mobile phase pH and pKa of solutes will change along with the varied organic modifier fraction, the difference between a couple of relevant pH and pKa is a constant. Therefore, the used pH and pKa in this paper were both the values obtained at 100% aqueous phase. […]

[4] = IS-RPLC retention on silica-based C18 column, logkw by linear solvent strength model; assay type: physicochemical
Method: as §1
The column temperature was set at 30 °C. Methanol and 20 mmol/L ammonium phosphate buffer (pH = 7.0, 8.0, 9.0, 10.0) was used as the mobile phase to perform isocratic elution. The injection volume was 10 µL and the detection wavelength for each eluted compound was set at its optimum absorption wavelength.
as §2, §3
The Eqs. (S1) and (S2) are the basis for the determination of logP by revered- phase liquid chromatography (RPLC) method. For dissociative solutes, it has been confirmed by many studies that the logD calibrated from logP has a better linear correlation with logkw than logP. […]

[5] = logD determined by multi-parameter QSRR models from IS-RPLC logkw; settings: IS-RPLC retention (logkw)
Method: Multi-parameter QSRR models including logD, logkw, ne, A, and B were established using the multiple linear regression (MLR) method. In the process of linear fitting, ne, A, B, and their different combinations were introduced to optimize the models.
The logD values reported in the literature for these four compounds were calculated using Equation (S3) with corresponding pKa, logP, and pH values.
At each pH, the retention time (tR) of every analyte was determined for at least four different volume fractions (φ) of methanol. All the tR values of the solutes were obtained by averaging the results of at least three independent injections. The tR value was corrected using dual-point retention time correction (DP-RTC). For a detailed description of the process, refer to our previous work. For the different hydrophobicities of the studied compounds, benzene, toluene, and benzyl alcohol were used as anchor compounds in the DP-RTC method. The dead time t0 was determined using uracil. For each solute, the logarithm of k was plotted against φ, and logkw was obtained using the Equation (S1). The logD values of the model compounds were calculated using Equation (S3), and the logD–logkw models were established with Equation (S4). The statistical analysis for the regression model was accomplished using Origin 9.4.

[6] = design: method as in UFZ-LSER database; settings: hydrogen bonding parameter B; ref UFZ-LSER database; cited from earlier work
[7] = Table 4, verification compounds
[8] = pH 7.0, methanol/20 mmol/L ammonium phosphate buffer, Welch Xtimate C18, 30 °C, 100% aqueous extrapolation
[9] = pH 8.0, methanol/20 mmol/L ammonium phosphate buffer, Welch Xtimate C18, 30 °C, 100% aqueous extrapolation
[10] = pH 9.0, methanol/20 mmol/L ammonium phosphate buffer, Welch Xtimate C18, 30 °C, 100% aqueous extrapolation
[11] = pH 10.0, methanol/20 mmol/L ammonium phosphate buffer, Welch Xtimate C18, 30 °C, 100% aqueous extrapolation
[12] = pH 7.0, calculated with literature logP, pKa and pH, Equation (S3)
[13] = pH 8.0, calculated with literature logP, pKa and pH, Equation (S3)
[14] = pH 9.0, calculated with literature logP, pKa and pH, Equation (S3)
[15] = pH 10.0, calculated with literature logP, pKa and pH, Equation (S3)

Compound: Nc1ccc(Br)cc1 [4-Bromoaniline]
logP [1, 7]: 2.05
logP ([1]; n-octanol/water): 2.05
pKa [2]: 3.89
pKa1 [2]: 3.89
logDpH 7.0 ([3]; pH 7): 1.74
logDpH 8.0 ([3]; pH 8): 1.74
logDpH 9.0 ([3]; pH 9): 1.74
logDpH 10.0 ([3]; pH 10): 1.74
logkw-pH 7.0 [4, 8]: 1.91
logkw-pH 8.0 [4, 9]: 1.98
logkw-pH 9.0 [4, 10]: 1.99
logkw-pH 10.0 [4, 11]: 1.99
chromatographic logD ([5]; pH 7): 1.83
chromatographic logD ([5]; pH 8): 1.81
chromatographic logD ([5]; pH 9): 1.85
chromatographic logD ([5]; pH 10): 1.81
B [6]: 1.19

logDpH 7.0 ([3]; pH 7): 1.26
logDpH 8.0 ([3]; pH 8): 2.20
logDpH 9.0 ([3]; pH 9): 2.83
logDpH 10.0 ([3]; pH 10): 3.01
logkw-pH 7.0 [4, 8]: 2.42
logkw-pH 8.0 [4, 9]: 2.99
logkw-pH 9.0 [4, 10]: 3.28
logkw-pH 10.0 [4, 11]: 4.54
chromatographic logD ([5]; pH 7): 1.52
chromatographic logD ([5]; pH 8): 2.36
chromatographic logD ([5]; pH 9): 2.81
chromatographic logD ([5]; pH 10): 3
Compound: c1ccc(CNCc2ccccc2)cc1 [Dibenzylamine]
logP [1, 7]: 3.03
logP ([1]; n-octanol/water): 3.03
pKa [2]: 8.76
pKa1 [2]: 8.76
B [6]: 1.30

Compound: Nc1ccc(N)cc1 [1,4-Benzenediamine]
logP ([1]; n-octanol/water): −0.30
pKa1 [2]: 6.31
pKa2 [2]: 2.97
logDpH 7.0 ([3]; pH 7): −0.38
logDpH 8.0 ([3]; pH 8): −0.31
logDpH 9.0 ([3]; pH 9): −0.30
logDpH 10.0 ([3]; pH 10): −0.30
logkw-pH 7.0 ([4]; pH 7): −0.39
logkw-pH 8.0 ([4]; pH 8): −0.35
logkw-pH 9.0 ([4]; pH 9): −0.17
logkw-pH 10.0 ([4]; pH 10): −0.04
B [6]: 1.30

Compound: c1ccc(-c2ccncc2)cc1 [4-Phenylpyridine]
logP ([1]; n-octanol/water): 2.59
pKa1 [2]: 5.45
logDpH 7.0 ([3]; pH 7): 2.58
logDpH 8.0 ([3]; pH 8): 2.59
logDpH 9.0 ([3]; pH 9): 2.59
logDpH 10.0 ([3]; pH 10): 2.59
logkw-pH 7.0 ([4]; pH 7): 2.66
logkw-pH 8.0 ([4]; pH 8): 2.81
logkw-pH 9.0 ([4]; pH 9): 2.84
logkw-pH 10.0 ([4]; pH 10): 2.80
B [6]: 1.38

Compound: Cc1ccnc(C)c1 [2,4-Dimethylpyridine]
logP ([1]; n-octanol/water): 1.65
pKa1 [2]: 6.58
logDpH 7.0 [3, 12]: 1.51
logDpH 8.0 [3, 13]: 1.63
logDpH 9.0 [3, 14]: 1.65
logDpH 10.0 [3, 15]: 1.65
logkw-pH 7.0 [4, 8]: 1.76
logkw-pH 8.0 [4, 9]: 1.85
logkw-pH 9.0 [4, 10]: 1.88
logkw-pH 10.0 [4, 11]: 1.96
B [6]: 0.63

Compound: Cc1ccc(N)cc1 [4-Methylaniline]
logP ([1]; n-octanol/water): 1.41
pKa1 [2]: 5.08
logDpH 7.0 ([3]; pH 7): 1.40
logDpH 8.0 ([3]; pH 8): 1.41
logDpH 9.0 ([3]; pH 9): 1.41
logDpH 10.0 ([3]; pH 10): 1.41
logkw-pH 7.0 ([4]; pH 7): 1.50
logkw-pH 8.0 ([4]; pH 8): 1.53
logkw-pH 9.0 ([4]; pH 9): 1.54
logkw-pH 10.0 ([4]; pH 10): 1.58
B [6]: 0.94

Compound: Cc1ccncc1 [4-Methylpyridine]
logP ([1]; n-octanol/water): 1.33
pKa1 [2]: 5.99
logDpH 7.0 ([3]; pH 7): 1.29
logDpH 8.0 ([3]; pH 8): 1.33
logDpH 9.0 ([3]; pH 9): 1.33
logDpH 10.0 ([3]; pH 10): 1.33
logkw-pH 7.0 [4, 8]: 1.40
logkw-pH 8.0 [4, 9]: 1.41
logkw-pH 9.0 [4, 10]: 1.44
logkw-pH 10.0 [4, 11]: 1.46
B [6]: 0.63

Compound: CCN(CC)c1ccccc1 [N, N-Diethylaniline]
logP ([1]; n-octanol/water): 3.31
pKa1 [2]: 6.57
logDpH 7.0 ([3]; pH 7): 3.17
logDpH 8.0 ([3]; pH 8): 3.29
logDpH 9.0 ([3]; pH 9): 3.31
logDpH 10.0 ([3]; pH 10): 3.31
logkw-pH 7.0 ([4]; pH 7): 3.20
logkw-pH 8.0 ([4]; pH 8): 3.44
logkw-pH 9.0 ([4]; pH 9): 3.47
logkw-pH 10.0 ([4]; pH 10): 3.54
B [6]: 0.95

Compound: CC(C)c1ccc(N)cc1 [4-Isopropylaniline]
logP ([1]; n-octanol/water): 2.23
pKa1 [2]: 4.85
logDpH 7.0 [3, 12]: 2.23
logDpH 8.0 [3, 13]: 2.23
logDpH 9.0 [3, 14]: 2.23
logDpH 10.0 [3, 15]: 2.23
logkw-pH 7.0 [4, 8]: 2.42
logkw-pH 8.0 [4, 9]: 2.57
logkw-pH 9.0 [4, 10]: 2.59
logkw-pH 10.0 [4, 11]: 2.65
B [6]: 0.92

Compound: Cc1ccc(N)c(C)c1 [2,4-Dimethylaniline]
logP ([1]; n-octanol/water): 1.68
pKa1 [2]: 4.70
logDpH 7.0 ([3]; pH 7): 1.68
logDpH 8.0 ([3]; pH 8): 1.68
logDpH 9.0 ([3]; pH 9): 1.68
logDpH 10.0 ([3]; pH 10): 1.68
logkw-pH 7.0 ([4]; pH 7): 1.92
logkw-pH 8.0 ([4]; pH 8): 1.98
logkw-pH 9.0 ([4]; pH 9): 2.00
logkw-pH 10.0 ([4]; pH 10): 2.04
B [6]: 0.95
